The record followed here is patent publication US12358901B2, “KV3 modulators” (priority 2018, dated 2025).

Each structure is given as a SMILES string.

The target in data set [1] is human Kv3.1 channels (hKv3.1) (Homo sapiens, UniProt P48547). Description: cell-based. Format: cell-based. As to conditions: for Kv3.1 pEC50: HEK-hKv3.1 cells, -15 mV voltage step, normalised to 50 microM reference compound; for Kv3.1 max R %: maximum response relative to reference compound (50 microM). From the text: The ability of the compounds of the invention to modulate the voltage-gated potassium channel subtypes Kv3.3/Kv3.2/Kv3.1 may be determined using the following assay. Analogous methods may be used to investigate the ability of the compounds of the invention to modulate other channel subtypes.
To assess compound effects on human Kv3.1 channels (hKv3.1):
Human embryonic kidney (HEK)-hKv3.1 cell line is generated by transfecting HEK-293 cells with an expression vector with human Kv3.1 (NM_004976.4). Cells are cultured with MEM supplemented with 10% Heat-Inactivated FBS, 2 mM L-glutamine, 1% Penicillin-Streptomycin, and 0.6 mg/ml of Geneticin (G418). HEK-hKv3.1b cells were amplified in T175 cm2 flask at 37° C. with 5% CO2, using MEM amplification medium, containing the G418 selection antibiotic (0.6 mg/ml). Cells were detached every 3-4 days, using DPBS to wash twice the flask, then TrypLE to dislodge the cells, and re-plated at a density of 2-4×10^6 cells/flask.
The day of the experiment, cells are removed from the incubator and the culture medium removed. Cells are washed with 5 ml of Dulbecco's PBS (DPBS) calcium and magnesium free and detached by the addition of 3 ml Versene (Invitrogen, Italy) followed by a brief incubation at 37° C. for 5 minutes. The flask is tapped to dislodge cells and 10 ml of DPBS containing calcium and magnesium is added to prepare a cell suspension. The cell suspension is then placed into a 15 ml centrifuge tube and centrifuged for 2 min at 1200 rpm. After centrifugation, the supernatant is removed and the cell pellet re-suspended in 4 ml of DPBS containing calcium and magnesium using a 5 ml pipette to break up the pellet. Cell suspension volume is then corrected to give a cell concentration for the assay of approximately 3 million cells per ml.
Experiments are conducted at r.t. using IonWorks Quattro™ planar array electrophysiology technology (Molecular Devices Corp.) with PatchPlate™ PPC. Stimulation protocols and data acquisition are carried out using a microcomputer (Dell Pentium 4). Planar electrode hole resistances (Rp) are determined by applying a 10 mV voltage step across each well. These measurements are performed before cell addition. After cell addition and seal formation, a seal test is performed by applying a voltage step from −80 mV to −70 mV for 160 ms. Following this, amphotericin-B solution is added to the intracellular face of the electrode to achieve intracellular access. Cells are held at −70 mV. Leak subtraction is conducted in all experiments by applying 50 ms hyperpolarizing (10 mV) prepulses to evoke leak currents followed by a 20 ms period at the holding potential before test pulses.
For hKv3.2 and hKv3.1, assays from the holding potential of −70 mV, a first test pulse at −15 mV was applied for 100 ms and after 100 ms at −70 mV a second pulse at +40 mV was applied for 50 ms. Cells were then maintained for 100 ms at −100 mV and another pulse from −70 mV to +40 mV (duration 50 ms) was applied to clamp later the voltage at −40 mV during 200 ms
The intracellular solution contains the following (in mM): K-gluconate 100, KCl 54, MgCl2 3.2, HEPES 5, adjusted to pH 7.3 with KOH. Amphotericin-B solution is prepared as 50 mg/ml stock solution in DMSO and diluted to a final working concentration of 0.1 mg/ml in intracellular solution. The external solution is Dulbecco's Phosphate Buffered Saline (DPBS) and contained the following (in mM): CaCl2 0.90, KCl 2.67, KH2PO4 1.47, MgCl·6H2O 0.493, NaCl 136.9, Na3PO4 8.06, with a pH of 7.4.
Compounds of use in the invention (or reference compounds such as N-cyclohexyl-N-[(7,8-dimethyl-2-oxo-1,2-dihydro-3-quinolinyl)methyl]-N-phenylurea) are dissolved in dimethylsulfoxide (DMSO) at a stock concentration of 10 mM. These solutions are further diluted with DMSO using a Biomek FX (Beckman Coulter) in a 384 compound plate. Each dilution (1 μL) is transferred to another compound plate and external solution containing 0.05% pluronic acid (66 μL) is added. […]

Data set [2] can be described thus: Determination of brain tissue binding (equilibrium dialysis). Format: in vitro ADME. The note with it: Sprague Dawley, rat whole brain homogenate, 5 h at 37° C. How it is done: Sprague Dawley rat whole blood, collected on the week of the experiment using K3-EDTA as an anti-coagulant, is diluted with isotonic phosphate buffer 1:1 (v/v). Sprague Dawley rat whole brain, stored frozen at −20° C., is thawed and homogenised in artificial cerebrospinal fluid (CSF) 1:2 (w/v).
An appropriate amount of test compound is dissolved in DMSO to give a 10 millimolar solution. Further dilutions, to obtain a 166.7 micromolar working solution are then prepared using 50% acetonitrile in MilliQ water. This working solution is used to spike the blood to obtain a final concentration of 0.5 micromolar in whole blood. Similarly, the working solution is used to spike brain samples to obtain a final concentration of 5 micromolar in whole brain. From these spiked blood and brain preparations, control samples (n=3), are immediately extracted and used to calculate the initial recovery of the test items.
150 microL of compound-free buffer (isotonic phosphate buffer for blood or artificial CSF buffer for brain) is dispensed in one half-well and 150 microL of spiked matrix (blood or brain) is loaded in the other half-well, with the two halves separated by a semi-permeable membrane. After an equilibration period of 5 h at 37° C., 50 microL of dialysed matrix (blood or brain) is added to 50 microL of corresponding compound-free buffer, and vice-versa for buffer, such that the volume of buffer to matrix (blood or brain) remains the same. Samples are then extracted by protein precipitation with 300 microL of acetonitrile containing rolipram (control for positive ionization mode) or diclofenac (control for negative ionization mode) as internal standards and centrifuged for 10 min at 3000 rpm. Supernatants are collected (100 microL), diluted with 27% AcN in MilliQ water (200 microL) and then injected into an HPLC-MS/MS or UPLC-MS/MS system to determine the concentration of test compound present.
Blood and brain tissue binding are then determined using the following formulas: Afu=Buffer/Blood or Afu=CSF/Brain
Where Afu=apparent fraction unbound; Buffer=analyte/internal standard ratio determined in the buffer compartment; Blood=analyte/internal standard ratio determined in the blood compartment; Brain=analyte/internal standard ratio determined in the brain compartment.
[formula] where: fucr=Fraction unbound corrected; D=matrix dilution factor (D=2 for blood and D=3 for brain).
Then: % Binding=(1−fucr)×100 % Unbound=100−% Bound Brain/Blood Partition Ratio (Kbb) Determination
A general note: In equilibrium dialysis free small molecules cross a membrane that holds back macromolecules.

Data set [3] deals with Salmonella typhimurium (TA1535, TA1537, TA98 and TA100) and Escherichia coli WP2 uvrA (pKM101). The experiment in a line: Ames testing (bacterial mutagenicity, with and without S9-mix). The note with it: absence and presence of S9-mix; for Ames Result (compound): 5 to 5000 ug/plate; for Ames Result (associated aniline): aniline associated with the compound.

The term EC50 denotes the midpoint of the concentration-response curve. For orientation: fraction unbound means free concentration divided by total concentration. A lower fraction unbound goes with little free substance.

As for `Cc1ccc(Oc2cnc(N3C(=O)NC(C)(C)C3=O)cn2)c2c1OCC21CC1` [Example 1, 5,5-dimethyl-3-[5-(7-methylspiro[2H-benzofuran-3,1′-cyclopropane]-4-yl)oxypyrazin-2-yl]imidazolidine-2,4-dione], in data set [1], the EC50 came out at 2750 nM; the “pEC50 and maxR in the Kv3.1 assay (in words)” value was “high pEC50 and high maxR”; the “Kv3.1 pEC50” value is listed as 5.47; the “Kv3.1 max R %” value is reported as 164%. Moreover, in data set [2], the fraction unbound at 5 h, 5 micromolar was found to be 0.043. In addition, the “Ames Result (compound)” value in data set [3] is “Non- mutagenic”.

Consider `Cc1ccc(Oc2ccc(N3C(=O)NC(C)(C)C3=O)cn2)c2c1OCC21CC1` [RE6, reference compound], for which, in data set [1], the “Kv3.1 pEC50” value is 5.58 and the “Kv3.1 max R %” value amounted to 144%. This compound also registered a fraction unbound at 5 h, 5 micromolar in data set [2] of 0.028. For the same compound, the “Ames Result (compound)” value in data set [3] is recorded as “Non- mutagenic”.

As to `CC[C@H]1NC(=O)N(c2ccc(Oc3cccc4c3C3(CC3)CO4)cn2)C1=O` [RE14, reference compound], in data set [1], the “Kv3.1 pEC50” value was found to be 5.2 and the “Kv3.1 max R %” value came out at 150%. In data set [2], this compound registered a fraction unbound at 5 h, 5 micromolar of 0.058.

With `Cc1ccc(Oc2ccc(N)cn2)c2c1OCC21CC1` [aniline associated with RE6/RE11], the “Ames Result (associated aniline)” value in data set [3] was “Mutagenic for TA1535 in the presence of metabolic activation at 150 ug/plate”.

For `Nc1cnc(Oc2cccc3c2C2(CC2)CO3)cn1` [aniline for Example 10], in data set [3], the “Ames Result (associated aniline)” value is “Non-mutagenic”.

Turning to `Cc1ccc(Oc2cnc(N)cn2)c2c1OCC21CC1` [aniline for Examples 1 and 9], the “Ames Result (associated aniline)” value in data set [3] is reported as “Non-mutagenic”.
